Results on 16 compounds are retold here after patent US11161837B2, “Benzofuran derivatives for the treatment of hepatitis C” (BRISTOL-MYERS SQUIBB COMPANY, priority 2016, dated 2021).

This experiment relates to genotype 1b (Con-1) HCV replicon in Huh-7 cells. The experiment can be described thus: HCV replicon luciferase assay. The class given is cell-based. The note with it: 1b replicon, Huh-7, Renilla luciferase, 3 days incubation. The method, then:
The cell lines used to evaluate compounds consist of a human hepatocyte derived cell line (Huh-7) that constitutively expresses a genotype 1b (Con-1) HCV replicon or a genotype 1b (Con-1) HCV replicon with an asparagine replacing the cysteine at amino acid 316, or a genotype 2a (JFH-1) replicon, containing a Renilla luciferase reporter gene. These cells were maintained in Dulbecco's modified Eagle medium (DMEM) containing 10% FBS, 100 U/mL penicillin/streptomycin and 1.0 mg/mL G418.
HCV Replicon Luciferase Assay.
To evaluate compound efficacy, titrated compounds were transferred to sterile 384-well tissue culture treated plates, and the plates were seeded with HCV replicon cells (50 μL at a density of 2.4×10^3 cells/well) in DMEM containing 4% FBS (final DMSO concentration at 0.5%). After 3 days incubation at 37° C., cells were analyzed for Renilla Luciferase activity using the EnduRen substrate (Promega cat # E6485) according to the manufacturer's directions. Briefly, the EnduRen substrate was diluted in DMEM and then added to the plates to a final concentration of 7.5 μM. The plates were incubated for at least 1 h at 37° C. then read on a Viewlux Imager (PerkinElmer) using a luminescence program. The 50% effective concentration (EC50) was calculated using the four-parameter logistic formula noted above.
(Replicon systems follow genome replication, usually without infectious particles.)

Molecules are shown by their SMILES.

The term EC50 denotes the concentration that produces a half-maximal response. Regarding `CNC(=O)c1c(-c2ccc(F)cc2)oc2cc(CCC(F)(F)F)c(-c3cccc(C(=O)NC4(c5ncccn5)CC(OC(F)F)C4)c3)cc12` (single isomer, unassigned) [Example 29b], the midpoint of the response, the EC50, lay at 30 nM.

On to `CNC(=O)c1c(-c2ccc(F)cc2)oc2cc(CCC(F)(F)F)c(-c3cc(C(=O)NC4(c5ncccn5)CC(OC(F)(F)F)C4)c(OC)cc3C)cc12` (single isomer, unassigned) [Example 46a, 2-(4-Fluorophenyl)-5-(4-methoxy-2-methyl-5-((1-(pyrimidin-2-yl)-3-(trifluoromethoxy)cyclobutyl)carbamoyl)phenyl)-N-methyl-6-(3,3,3-trifluoropropyl)benzofuran-3-carboxamide], for which the EC50 (Hepatitis C virus, Huh-7, 72 h) came out at 40 nM.

`CNC(=O)c1c(-c2ccc(F)cc2)oc2cc(CCC(F)(F)F)c(-c3cc(C(=O)NC4(c5ncccn5)CC(OC(F)(F)F)C4)c(OC)cc3C)cc12` (single isomer, unassigned) [Example 46b, 2-(4-Fluorophenyl)-5-(4-methoxy-2-methyl-5-((1-(pyrimidin-2-yl)-3-(trifluoromethoxy)cyclobutyl)carbamoyl)phenyl)-N-methyl-6-(3,3,3-trifluoropropyl)benzofuran-3-carboxamide] registered an EC50 of 80 nM. That is a double-digit nanomolar value. In turn, `CCCc1cc2oc(-c3ccc(F)cc3)c(C(=O)NC)c2cc1-c1ccc(F)c(C(=O)NC2(c3ncccn3)CC(OC(F)(F)F)C2)c1` (single isomer, unassigned) [Example 48a, 5-(4-Fluoro-3-((1-(pyrimidin-2-yl)-3-(trifluoromethoxy)cyclobutyl)carbamoyl)phenyl)-2-(4-fluorophenyl)-N-methyl-6-propylbenzofuran-3-carboxamide] registered an EC50 (Hepatitis C virus, Huh-7, 72 h) of 20 nM. On the same count and under the same terms, to `CNC(=O)c1c(-c2ccc(F)cc2)oc2cc(CCC(F)(F)F)c(-c3ccc(F)c(C(=O)NC4(c5ncccn5)CC(OC(F)(F)F)C4)c3)cc12` (single isomer, unassigned) [Example 49a, 5-(4-Fluoro-3-((1-(pyrimidin-2-yl)-3-(trifluoromethoxy)cyclobutyl)carbamoyl)phenyl)-2-(4-fluorophenyl)-N-methyl-6-(3,3,3-trifluoropropyl)benzofuran-3-carboxamide] belongs 20 nM; to `CCCc1cc2oc(-c3ccc(F)cc3)c(C(=O)NC)c2cc1-c1cc(C(=O)NC2(c3ncccn3)CC(OC(F)(F)F)C2)c(OC)cc1C` (single isomer, unassigned) [Example 50a, 2-(4-Fluorophenyl)-5-(4-methoxy-2-methyl-5-((1-(pyrimidin-2-yl)-3-(trifluoromethoxy)cyclobutyl)carbamoyl)phenyl)-N-methyl-6-propylbenzofuran-3-carboxamide], 120 nM; to `CNC(=O)c1c(-c2ccc(F)cc2)oc2cc(CCC(F)(F)F)c(-c3cc(C(=O)NC4(C)CC(OC(F)F)C4)c(OC)cc3C)cc12` (single isomer, unassigned) [Example 53a, 5-(5-((3-(Difluoromethoxy)-1-methylcyclobutyl)carbamoyl)-4-methoxy-2-methylphenyl)-2-(4-fluorophenyl)-N-methyl-6-(3,3,3-trifluoropropyl)benzofuran-3-carboxamide], 60 nM. In turn, `CNC(=O)c1c(-c2ccc(F)cc2)oc2cc(CCC(F)(F)F)c(-c3cc(C(=O)NC4(C)CC(OC(F)F)C4)c(OC)cc3C)cc12` (single isomer, unassigned) [Example 53b, 5-(5-((3-(Difluoromethoxy)-1-methylcyclobutyl)carbamoyl)-4-methoxy-2-methylphenyl)-2-(4-fluorophenyl)-N-methyl-6-(3,3,3-trifluoropropyl)benzofuran-3-carboxamide] had an EC50 of 60 nM. Turning to `CCCc1cc2oc(-c3ccc(F)cc3)c(C(=O)NC)c2cc1-c1cccc(C(=O)NC2(C)CC(OC(F)F)C2)c1` (single isomer, unassigned) [Example 55a, 5-(3-((3-(Difluoromethoxy)-1-methylcyclobutyl)carbamoyl)phenyl)-2-(4-fluorophenyl)-N-methyl-6-propylbenzofuran-3-carboxamide], the concentration giving a half-maximal response (EC50) (Hepatitis C virus, Huh-7, 72 h) came to 30 nM. Turning to `CCCc1cc2oc(-c3ccc(F)cc3)c(C(=O)NC)c2cc1-c1cccc(C(=O)NC2(C)CC(OC(F)F)C2)c1` (single isomer, unassigned) [Example 55b, 5-(3-((3-(Difluoromethoxy)-1-methylcyclobutyl)carbamoyl)phenyl)-2-(4-fluorophenyl)-N-methyl-6-propylbenzofuran-3-carboxamide], the midpoint of the response, the EC50, lay at 30 nM.

As for `CCCc1cc2oc(-c3ccc(F)cc3)c(C(=O)NC)c2cc1-c1cc(C(=O)NC2(C)CC(OC(F)F)C2)c(OC)cc1C` (single isomer, unassigned) [Example 57b, 5-(5-((3-(Difluoromethoxy)-1-methylcyclobutyl)carbamoyl)-4-methoxy-2-methylphenyl)-2-(4-fluorophenyl)-N-methyl-6-propylbenzofuran-3-carboxamide], the EC50 worked out at 70 nM.

`CNC(=O)c1c(-c2ccc(F)cc2)oc2cc(CCC(F)(F)F)c(-c3cccc(C(=O)NC4(C)CC(OC(F)F)C4)c3)cc12` (single isomer, unassigned) [Example 59a, 5-(3-((3-(Difluoromethoxy)-1-methylcyclobutyl)carbamoyl)phenyl)-2-(4-fluorophenyl)-N-methyl-6-(3,3,3-trifluoropropyl)benzofuran-3-carboxamide] registered an EC50 (Hepatitis C virus, Huh-7, 72 h) of 30 nM. That is a double-digit nanomolar value. Same read-out and setting: for `CCCc1cc2oc(-c3ccc(F)cc3)c(C(=O)NC)c2cc1-c1ccc(F)c(C(=O)NC2(C)CC(OC(F)F)C2)c1` (single isomer, unassigned) [Example 61a, 5-(3-((3-(Difluoromethoxy)-1-methylcyclobutyl)carbamoyl)-4-fluorophenyl)-2-(4-fluorophenyl)-N-methyl-6-propylbenzofuran-3-carboxamide] the value was 20 nM.

Regarding `CCCc1cc2oc(-c3ccc(F)cc3)c(C(=O)NC)c2cc1-c1ccc(F)c(C(=O)NC2(C)CC(OC(F)F)C2)c1` (single isomer, unassigned) [Example 61b, 5-(3-((3-(Difluoromethoxy)-1-methylcyclobutyl)carbamoyl)-4-fluorophenyl)-2-(4-fluorophenyl)-N-methyl-6-propylbenzofuran-3-carboxamide], the 50% effective concentration (EC50) stood at 20 nM. In turn, `CNC(=O)c1c(-c2ccc(F)cc2)oc2cc(CCC(F)(F)F)c(-c3ccc(F)c(C(=O)NC4(C)CC(OC(F)F)C4)c3)cc12` (single isomer, unassigned) [Example 63a, 5-(3-((3-(Difluoromethoxy)-1-methylcyclobutyl)carbamoyl)-4-fluorophenyl)-2-(4-fluorophenyl)-N-methyl-6-(3,3,3-trifluoropropyl)benzofuran-3-carboxamide] had an EC50 (Hepatitis C virus, Huh-7, 72 h) of 10 nM. The compound `CCOc1cc2oc(-c3ccc(F)cc3)c(C(=O)NC)c2cc1-c1cccc(C(=O)NC2(c3ncccn3)CC(OC(F)F)C2)c1` (single isomer, unassigned) [Example 67a, 5-(3-((3-(Difluoromethoxy)-1-(pyrimidin-2-yl)cyclobutyl)carbamoyl)phenyl)-6-ethoxy-2-(4-fluorophenyl)-N-methylbenzofuran-3-carboxamide] had an EC50 of 30 nM.
